We go through 52 compounds from the supplement of paper PMC12137928.

Counter-ions that a name gives are not always drawn.

This assay relates to HCT116. The following applies: 72 h. In a few lines:
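After seeding at 250 cells per well in 1536-well plates, HCT116 cells were given 5 h to attach. CellTiter-Glo luminescence, scaled to 0% for vehicle and -100% for positive control, was pattern-corrected. Fitting with a four-parameter Hill model produced IC50 and maximal efficacy.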

In the case of `O=C(O)c1cc2ccccc2c(Cc2c([O-])c(C(=O)O)cc3ccccc23)c1[O-].[Na+].[Na+]` [Pamoic acid disodium salt], the IC50 cell viability (ICRF193 0 nM) was > 45.8 µM and the IC50 cell viability (ICRF193 200 nM) was > 45.8 µM.
As for `CC(CN(C)C)C(C)(O)Cc1ccc(Cl)cc1` (centres undefined) [Clobutinol hydrochloride], the IC50 cell viability (ICRF193 0 nM) was > 45.8 µM and the IC50 cell viability (ICRF193 200 nM) is > 45.8 µM.
For the compound `CCCCCC[C@@H](CCC)C(=O)O` [(2R)-2-Propyloctanoic acid], the IC50 cell viability runs as follows: (ICRF193 0 nM) > 45.8 µM; (ICRF193 200 nM) > 45.8 µM.
On to `CC(C)(C)C(=O)OCOC(=O)[C@@H]1N2C(=O)[C@@H](/N=C/N3CCCCCC3)[C@H]2SC1(C)C` [Pivmecillinam], for which the IC50 cell viability reads like this: (ICRF193 0 nM) > 45.8 µM; (ICRF193 200 nM) > 45.8 µM.
As for `C[C@H]1C[C@H]2[C@@H]3CCC4=CC(=O)C=C[C@]4(C)[C@H]3C(=O)C[C@]2(C)[C@@]1(O)C(=O)CO` [Meprednisone], the IC50 cell viability (ICRF193 0 nM) is > 45.8 µM and the IC50 cell viability (ICRF193 200 nM) was > 45.8 µM.
`CC(=O)O[C@]1(C(C)=O)CC[C@H]2[C@@H]3C=C(Cl)C4=CC(=O)[C@@H]5C[C@@H]5[C@]4(C)[C@H]3CC[C@@]21C` [Cyproterone acetate]: the IC50 cell viability is > 45.8 µM (ICRF193 0 nM) and > 45.8 µM (ICRF193 200 nM).
For `CO[C@H]1O[C@@H]2O[C@@]3(C)CC[C@H]4[C@H](C)CC[C@@H]([C@H]1C)[C@@]24OO3` [Artemether], the IC50 cell viability reads like this: (ICRF193 0 nM) > 45.8 µM; (ICRF193 200 nM) > 45.8 µM.
For the compound `CC(=O)Nc1c(I)cc(I)c(C(=O)O)c1I` [Acetrizoic acid], the IC50 cell viability runs as follows: (ICRF193 0 nM) > 45.8 µM; (ICRF193 200 nM) > 45.8 µM.
Turning to `O=C(O)CCCc1ccccc1` [Sodium 4-phenylbutyrate], the IC50 cell viability runs as follows: (ICRF193 0 nM) > 45.8 µM; (ICRF193 200 nM) > 45.8 µM.
Regarding `Cc1onc(-c2c(Cl)cccc2Cl)c1C(=O)N[C@@H]1C(=O)N2[C@@H]1SC(C)(C)[C@@H]2C(=O)O` [Dicloxacillin sodium salt monohydrate], the IC50 cell viability was > 45.8 µM (ICRF193 0 nM) and > 45.8 µM (ICRF193 200 nM).
Regarding `CN(C)CC(=O)O` [N,N-DIMETHYLGLYCINE HYDROCHLORIDE], the IC50 cell viability (ICRF193 0 nM) is > 45.8 µM and the IC50 cell viability (ICRF193 200 nM) was > 45.8 µM.
In the case of `CCC(C)(C)c1ccc(CC(C)CN2C[C@@H](C)O[C@@H](C)C2)cc1` (some centres undefined) [Amorolfine hydrochloride], the IC50 cell viability (ICRF193 0 nM) is > 45.8 µM and the IC50 cell viability (ICRF193 200 nM) is > 45.8 µM.
Consider `Cc1cccc(C)c1NC(=O)C1CCCCN1C` (centres undefined) [MEPIVACAINE HYDROCHLORIDE], for which the IC50 cell viability by setting is: (ICRF193 0 nM) > 45.8 µM; (ICRF193 200 nM) > 45.8 µM.
As to `Cc1ncc([N+](=O)[O-])n1CC(C)O` (centres undefined) [Secnidazole], the IC50 cell viability runs as follows: (ICRF193 0 nM) > 45.8 µM; (ICRF193 200 nM) > 45.8 µM.
With `c1ccc2c(CC3=NCCN3)cccc2c1` [Naphazoline hydrochloride], the IC50 cell viability is, setting by setting: (ICRF193 0 nM) > 45.8 µM; (ICRF193 200 nM) > 45.8 µM.
As to `CN(C)CCCOc1nn(Cc2ccccc2)c2ccccc12` [Benzydamine hydrochloride], the IC50 cell viability (ICRF193 0 nM) was > 45.8 µM and the IC50 cell viability (ICRF193 200 nM) is > 45.8 µM.
Regarding `CCOC(=O)c1cccc(N)c1` [Ethyl 3-aminobenzoate methanesulfonic acid salt], the IC50 cell viability is, setting by setting: (ICRF193 0 nM) > 45.8 µM; (ICRF193 200 nM) > 45.8 µM.
As to `O=C(O[C@H]1CN2CCC1CC2)N1CCc2ccccc2[C@@H]1c1ccccc1` [Solifenacin (hydrochloride)], the IC50 cell viability was > 45.8 µM (ICRF193 0 nM) and > 45.8 µM (ICRF193 200 nM).
Turning to `OCc1ccccc1` [Benzyl alcohol], the IC50 cell viability by setting is: (ICRF193 0 nM) > 45.8 µM; (ICRF193 200 nM) > 45.8 µM.
For the compound `Cc1nnc(SCC2=C(C(=O)O)N3C(=O)[C@@H](NC(=O)Cn4cnnn4)[C@H]3SC2)s1` [Cefazolin], the IC50 cell viability (ICRF193 0 nM) is > 45.8 µM and the IC50 cell viability (ICRF193 200 nM) was > 45.8 µM.
Take `CC1=C(C(=O)O)N2C(=O)[C@@H](NC(=O)[C@H](N)c3ccccc3)[C@H]2SC1` [Cephalexin]: the IC50 cell viability by setting is: (ICRF193 0 nM) > 45.8 µM; (ICRF193 200 nM) > 45.8 µM.
Take `CO[C@@]1(NC(=O)C2SC(=C(C(N)=O)C(=O)O)S2)C(=O)N2C(C(=O)O)=C(CSc3nnnn3C)CS[C@@H]21` (some centres undefined) [CEFOTETAN]: the IC50 cell viability (ICRF193 0 nM) was > 45.8 µM and the IC50 cell viability (ICRF193 200 nM) is > 45.8 µM.
Regarding `CCCNC(C)C(=O)Nc1c(C)csc1C(=O)OC` (centres undefined) [Articaine hydrochloride], the IC50 cell viability by setting is: (ICRF193 0 nM) > 45.8 µM; (ICRF193 200 nM) > 45.8 µM.
For the compound `CO/N=C(\C(=O)N[C@@H]1C(=O)N2C(C(=O)[O-])=C(C[n+]3ccc(N)n3CCO)CS[C@H]12)c1csc(N)n1` [Cefoselis (sulfate)], the IC50 cell viability reads like this: (ICRF193 0 nM) > 45.8 µM; (ICRF193 200 nM) > 45.8 µM.
Regarding `CC(S)C(=O)NCC(=O)O` (centres undefined) [Tiopronin], the IC50 cell viability reads like this: (ICRF193 0 nM) > 45.8 µM; (ICRF193 200 nM) > 45.8 µM.
Consider `COC(=O)CCCCC(CCSS/C(CCO)=C(/C)N(C=O)Cc1cnc(C)nc1N)SC(C)=O` (centres undefined) [Octotiamine], for which the IC50 cell viability was > 45.8 µM (ICRF193 0 nM) and > 45.8 µM (ICRF193 200 nM).
With `CS(=O)(=O)n1cc2c(n1)CN([C@H]1CO[C@H](c3cc(F)ccc3F)[C@@H](N)C1)C2` [MK-3102], the IC50 cell viability is, setting by setting: (ICRF193 0 nM) > 45.8 µM; (ICRF193 200 nM) > 45.8 µM.
In the case of `CCC(=O)O[C@@H]1CC(=O)O[C@H](C)C/C=C/C=C/[C@H](O)[C@H](C)C[C@H](CC=O)[C@H](O[C@@H]2O[C@H](C)[C@@H](O[C@H]3C[C@@](C)(O)[C@@H](OC(=O)CC)[C@H](C)O3)[C@H](N(C)C)[C@H]2O)[C@H]1OC` [Midecamycin], the IC50 cell viability is, setting by setting: (ICRF193 0 nM) > 45.8 µM; (ICRF193 200 nM) > 45.8 µM.
Regarding `CCCCCCCCCCCCCCCCOP(=O)([O-])OCC[N+](C)(C)C` [Miltefosine], the IC50 cell viability reads like this: (ICRF193 0 nM) > 45.8 µM; (ICRF193 200 nM) > 45.8 µM.
For `C[C@H]1O[C@H](O[C@H]2[C@H](O)[C@@H](O)[C@@H](O[C@H]3[C@H](O)[C@@H](O)C(O)O[C@@H]3CO)O[C@@H]2CO)[C@H](O)[C@@H](O)[C@@H]1N[C@H]1C=C(CO)[C@@H](O)[C@H](O)[C@H]1O` (some centres undefined) [Acarbose], the IC50 cell viability reads like this: (ICRF193 0 nM) > 45.8 µM; (ICRF193 200 nM) > 45.8 µM.
Consider `CCCCC1C(=O)NC(=O)N(C2CCCCC2)C1=O` (centres undefined) [Bucolome], for which the IC50 cell viability is, setting by setting: (ICRF193 0 nM) > 45.8 µM; (ICRF193 200 nM) > 45.8 µM.
Take `Nc1nc(/C(=C/CC(=O)O)C(=O)N[C@@H]2C(=O)N3C(C(=O)O)=CCS[C@H]23)cs1` [CEFTIBUTEN]: the IC50 cell viability is, setting by setting: (ICRF193 0 nM) > 45.8 µM; (ICRF193 200 nM) > 45.8 µM.
Turning to `Cc1cc(O)ccc1Cl` [4-Chloro-3-methylphenol], the IC50 cell viability (ICRF193 0 nM) was > 45.8 µM and the IC50 cell viability (ICRF193 200 nM) is > 45.8 µM.
For the compound `CC(C)(CO)[C@@H](O)C(=O)NCCC(=O)O` [Pantothenic acid], the IC50 cell viability is, setting by setting: (ICRF193 0 nM) > 45.8 µM; (ICRF193 200 nM) > 45.8 µM.
Take `Nc1ccn([C@@H]2CS[C@H](CO)O2)c(=O)n1` [Lamivudine]: the IC50 cell viability (ICRF193 0 nM) is > 45.8 µM and the IC50 cell viability (ICRF193 200 nM) is > 45.8 µM.
Consider `CN(C)Cc1ccccc1` [N,N-Dimethylbenzylamine], for which the IC50 cell viability runs as follows: (ICRF193 0 nM) > 45.8 µM; (ICRF193 200 nM) > 45.8 µM.
`CN(C)C(=O)Oc1cc(OC(=O)N(C)C)cc(C(O)CNC(C)(C)C)c1` (centres undefined) [Bambuterol hydrochloride]: the IC50 cell viability reads like this: (ICRF193 0 nM) > 45.8 µM; (ICRF193 200 nM) > 45.8 µM.
On to `CC1(C)[C@@H](O)CC[C@]2(C)[C@H]3C(=O)C=C4[C@@H]5C[C@@](C)(C(=O)O)CC[C@]5(C)CC[C@@]4(C)[C@]3(C)CC[C@@H]12` [ENOXOLONE], for which the IC50 cell viability is > 45.8 µM (ICRF193 0 nM) and > 45.8 µM (ICRF193 200 nM).
Take `CC[C@@]1(c2ccccc2)NC(=O)N(C)C1=O` [(S)-Mephenytoin]: the IC50 cell viability (ICRF193 0 nM) is > 45.8 µM and the IC50 cell viability (ICRF193 200 nM) is > 45.8 µM.
In the case of `Cc1nnc2n1-c1sc(Br)cc1C(c1ccccc1Cl)=NC2` [Brotizolam], the IC50 cell viability by setting is: (ICRF193 0 nM) > 45.8 µM; (ICRF193 200 nM) > 45.8 µM.
For the compound `C[C@H](O)C(=O)Nc1c(I)c(C(=O)NC(CO)CO)c(I)c(C(=O)NC(CO)CO)c1I` [Iopamidol], the IC50 cell viability by setting is: (ICRF193 0 nM) > 45.8 µM; (ICRF193 200 nM) > 45.8 µM.
On to `Cc1ncc(C[n+]2csc(CCOP(=O)(O)OP(=O)(O)O)c2C)c(N)n1` [Thiamine pyrophosphate], for which the IC50 cell viability was > 45.8 µM (ICRF193 0 nM) and > 45.8 µM (ICRF193 200 nM).
Take `CCC(CN)=C(c1ccccc1)c1ccccc1` [Etifelmine hydrochloride]: the IC50 cell viability by setting is: (ICRF193 0 nM) > 45.8 µM; (ICRF193 200 nM) > 45.8 µM.
As to `O=C(NC[C@H]1CN(c2ccc(N3CCOCC3=O)cc2)C(=O)O1)c1ccc(Cl)s1` [Rivaroxaban], the IC50 cell viability (ICRF193 0 nM) is > 45.8 µM and the IC50 cell viability (ICRF193 200 nM) is > 45.8 µM.
On to `C[n+]1ccccc1/C=N/O` [Pralidoxime chloride], for which the IC50 cell viability runs as follows: (ICRF193 0 nM) > 45.8 µM; (ICRF193 200 nM) > 45.8 µM.
On to `O=P(O)(O)C(O)(Cn1ccnc1)P(=O)(O)O` [Zoledronic acid monohydrate], for which the IC50 cell viability (ICRF193 0 nM) is > 45.8 µM and the IC50 cell viability (ICRF193 200 nM) was > 45.8 µM.
Turning to `CCCC(=O)O[C@]1(C(=O)CO)CC[C@H]2[C@@H]3CCC4=CC(=O)CC[C@]4(C)[C@H]3[C@@H](O)C[C@@]21C` [Hydrocortisone 17-butyrate], the IC50 cell viability was > 45.8 µM (ICRF193 0 nM) and > 45.8 µM (ICRF193 200 nM).
For the compound `Cc1ccnc2c1NC(=O)c1cccnc1N2C1CC1` [Nevirapine], the IC50 cell viability runs as follows: (ICRF193 0 nM) > 45.8 µM; (ICRF193 200 nM) > 45.8 µM.
Take `C[C@]12C=CC(=O)C=C1CC[C@H]1[C@@H]3C[C@@H](O)[C@](O)(C(=O)CO)[C@@]3(C)C[C@H](O)[C@@]12F` [Triamcinolone]: the IC50 cell viability was > 45.8 µM (ICRF193 0 nM) and > 45.8 µM (ICRF193 200 nM).
Take `O=c1cc[nH]c(=O)[nH]1` [Uracil]: the IC50 cell viability was > 45.8 µM (ICRF193 0 nM) and > 45.8 µM (ICRF193 200 nM).
With `CCOC(=O)C1(c2ccccc2)CCCN(C)CC1` (centres undefined) [Ethoheptazine hydrochloride], the IC50 cell viability by setting is: (ICRF193 0 nM) > 45.8 µM; (ICRF193 200 nM) > 45.8 µM.
Consider `CC(O)COc1ccccc1` (centres undefined) [1-Phenoxy-2-propanol], for which the IC50 cell viability is > 45.8 µM (ICRF193 0 nM) and > 45.8 µM (ICRF193 200 nM).
